Experimental data from PubChem BioAssay (NCI).
Where “and” joins values, the source holds several entries; their conditions need not be identical. Identical values can stand only once.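 Following 48 hours of exposure in 96-well plates, responses at five concentrations were used to interpolate endpoints linearly. GI50 is the concentration that inhibits growth by half. TGI: total growth inhibition.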

Assays:
Assay in all cases: NCI anticancer screen, dose series, 48 h
UACC-62 melanoma = tested on: UACC-62 melanoma
MCF7 breast = tested on: MCF7 breast
LOX IMVI melanoma = tested on: LOX IMVI melanoma
OVCAR-8 ovarian = tested on: OVCAR-8 ovarian
SN12C renal = tested on: SN12C renal
MALME-3M melanoma = tested on: MALME-3M melanoma
TK-10 renal = tested on: TK-10 renal
SF-268 CNS = tested on: SF-268 CNS
SK-MEL-2 melanoma = tested on: SK-MEL-2 melanoma
NCI-H226 lung = tested on: NCI-H226 lung
CAKI-1 renal = tested on: CAKI-1 renal
SF-295 CNS = tested on: SF-295 CNS
HL-60(TB) leukemia = tested on: HL-60(TB) leukemia

Structure (SMILES)	TGI (UACC-62 melanoma) [µM]	TGI (MCF7 breast) [µM]	TGI (LOX IMVI melanoma) [µM]	TGI (OVCAR-8 ovarian) [µM]	TGI (SN12C renal) [µM]	TGI (MALME-3M melanoma) [µM]	TGI (TK-10 renal) [µM]	TGI (SF-268 CNS)	TGI (SK-MEL-2 melanoma) [µM]	TGI (NCI-H226 lung) [µM]	TGI (CAKI-1 renal) [µM]	TGI (SF-295 CNS) [µM]	GI50 (UACC-62 melanoma) [µM]	TGI (HL-60(TB) leukemia) [µM]	GI50 (MCF7 breast)	GI50 (OVCAR-8 ovarian)	GI50 (SN12C renal)	GI50 (MALME-3M melanoma)	GI50 (SF-268 CNS)
Cn1c(N=P(c2ccccc2)(c2ccccc2)c2ccccc2)c([N+](=O)[O-])c(=O)n(C)c1=O	> 100	> 100	> 100	75.3	> 100	> 100	> 100	> 100 µM	> 100	> 100	> 100	> 100	–	–	–	–	–	–	–
O=c1c([OH2+])c(-c2ccc(O)cc2[O-])oc2cc(O)cc([O-])c12.O=c1c([OH2+])c(-c2ccc(O)cc2[O-])oc2cc(O)cc([O-])c12.[Ti+4]	> 100	–	> 100	> 100	> 100	> 100	> 100	> 100 µM	> 100	> 100	> 100	> 100	> 100	> 100	–	–	–	–	–
COC1C(O)C(C)OC(OC2CCC3(C)C(CCC4C3C(O)CC3(C)C(C5=CC(=O)OC5)CCC43O)C2)C1O (stereo unspecified)	1.25	–	0.775	1.67	0.426	0.667	1.57	0.532 µM	1.59	2.39	0.469	1.23	–	0.665	–	–	–	–	–
CCCCc1ccc(C#CC#Cc2ccc(CCCC)s2)s1	> 100	> 100	–	> 100	> 100	–	> 100	> 100 µM	–	> 100	> 100	> 100	–	> 100	–	–	–	–	–
CN(C(=O)c1ccco1)C(=S)N1CCN(c2ccccn2)CC1	> 100	–	> 100	> 100	> 100	> 100	> 100	> 100 µM	> 100	> 100	> 100	> 100	–	> 100	–	–	–	–	–
O=C1CCCc2ccc3c(c21)CC1(Cc2ccccc2C1)C3	> 100	> 100	> 100	> 100	> 100	> 100	> 100	–	> 100	67.3	–	> 100	–	–	–	–	–	–	–
COc1cc2c[n+](C)c3c4cc(OC)c(OC)cc4ccc3c2cc1OC	> 100	> 100	> 100	> 100	> 100	> 100	> 100	> 100 µM and 37.6 µM	> 100	> 100	> 100	> 100	–	–	35.6 µM and 8.35 µM	32.9 µM and 15 µM	30.4 µM and 3.98 µM	> 100 µM and 21.7 µM	22.6 µM and 3.32 µM
C=C1Cc2cc(OC)c(OC)c(OC)c2-c2ccc(SC)c(=O)cc21	–	–	0.343	–	1.6	2.57	6.83	1.42 µM	< 0.01	0.188	6.01	4.12	–	–	–	–	–	–	–
CCCNC(=O)N(C)C(=O)N1N=C(c2ccccc2)C1c1ccccc1 (stereo unspecified)	> 100	> 100	> 100	> 100	> 100	> 100	> 100	–	> 100	> 100	> 100	> 100	–	–	–	–	–	–	–
